Laboratory results from article PMC10706121, “Bioactive Polyketides from the Natural Complex of the Sea Urchin-Associated Fungi Penicillium sajarovii KMM 4718 and Aspergillus protuberus KMM 4747” (International Journal of Molecular Sciences, 2023).

Biological target: T1, urease from Canavalia ensiformis (Canavalia ensiformis, UniProt P07374)
T1 construct: purchased Sigma
Test: Urease inhibition assay (indophenol method, cell-free)
Assay type: biochemical
Details: not given
Procedure: A reaction mixture consisting of 25 µL of enzyme solution (urease from Canavalia ensiformis, Sigma, 1U final concentration) and 5 µL of test compounds dissolved in water (10–300.0 µM final concentration) was preincubated at 37 °C for 60 min in 96-well plates. Then, 55 µL of phosphate-buffered solution with […] of urea was added to each well and incubated at 37 °C for 10 min. The urease inhibitory activity was estimated by determining ammonia production using the indophenol method. Briefly, 45 µL of phenol reagent (1% w/v phenol and 0.005% w/v sodium nitroprusside) and 70 µL of alkali reagent (0.5% w/v NaOH and 0.1% active chloride NaClO) were added to each well. The absorbance was measured after 50 min at 630 nm using a MultiskanFS microplate reader (Thermo Scientific Inc., Beverly, MA, USA). All reactions were performed in triplicate in a final volume of 200 µL. The pH was maintained at 7.3–7.5 in all assays. DMSO 5% was used as a positive control.

T1 sequence (P07374 whole entry, looked up): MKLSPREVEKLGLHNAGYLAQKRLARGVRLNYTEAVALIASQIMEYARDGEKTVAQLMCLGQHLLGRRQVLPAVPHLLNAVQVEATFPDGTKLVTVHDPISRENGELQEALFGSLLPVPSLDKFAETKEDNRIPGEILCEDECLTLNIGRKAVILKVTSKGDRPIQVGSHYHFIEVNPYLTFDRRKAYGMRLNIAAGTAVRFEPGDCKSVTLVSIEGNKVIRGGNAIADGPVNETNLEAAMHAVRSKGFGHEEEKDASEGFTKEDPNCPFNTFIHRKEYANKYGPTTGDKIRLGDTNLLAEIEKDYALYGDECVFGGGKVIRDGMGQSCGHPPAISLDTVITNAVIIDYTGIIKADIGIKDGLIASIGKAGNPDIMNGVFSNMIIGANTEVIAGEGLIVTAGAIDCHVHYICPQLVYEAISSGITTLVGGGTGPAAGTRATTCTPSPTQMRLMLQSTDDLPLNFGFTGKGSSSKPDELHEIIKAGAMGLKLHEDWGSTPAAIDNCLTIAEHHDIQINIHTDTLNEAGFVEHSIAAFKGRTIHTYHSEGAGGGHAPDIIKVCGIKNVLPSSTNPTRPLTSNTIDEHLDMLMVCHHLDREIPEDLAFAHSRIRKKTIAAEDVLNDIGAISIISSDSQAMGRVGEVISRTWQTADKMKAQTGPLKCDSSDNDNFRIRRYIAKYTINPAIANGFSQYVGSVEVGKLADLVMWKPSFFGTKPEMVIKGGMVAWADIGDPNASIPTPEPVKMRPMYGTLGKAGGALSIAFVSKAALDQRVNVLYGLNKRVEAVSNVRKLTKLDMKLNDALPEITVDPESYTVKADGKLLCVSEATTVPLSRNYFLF

SMILES	IC50
Cc1cc(O)c(O)c2oc3cc(O)cc(O)c3c(=O)c12 [Compound 7, 1,3,5,6-tetrahydroxy-8-methylxanthone]	100 µM
COC1=CC(=O)c2c(O)cc(OC)cc2[C@@]1(C)O [Compound 2, sajaroketide B]	98.5 ± 0.8 µM

System: S. aureus-infected H9c2 cardiomyocytes
Test: Staphylococcus aureus-induced infection of H9c2 cardiomyocytes (in vitro model of infectious myocarditis, MTT)
Assay type: cell-based, rat
Details: 1 and 10 µM
Procedure: The H9c2 cells were seeded at concentrations of 3 × 10^3 cell/well. After 24 h, the cell culture media was changed with an S. aureus bacterial suspension (10^2 CFU/mL) prepared in full DMEM culture media. The investigated compounds at concentrations of 1 and 10 µM were added after 1 h and the cells were incubated for 48 h. The S. aureus suspension with compounds at the same concentrations was used as a control. MTT reagent was added to all wells and formazan production was detected with the microplate reader MultiscanFC (ThermoLabsystems Inc., Beverly, MA, USA). The viability of S. aureus-infected cells was calculated as:Viability, relative units = (OD cells+Sa +comp − OD Sa+comp)/(OD cells+Sa − OD Sa)

SMILES	effect on the viability of S. aureus-infected H9c2 cardiomyocytes
COC1=CC(=O)c2c(O)cc(OC)cc2[C@@]1(C)O [Compound 2, sajaroketide B]	did not show any statistical effect

System: Candida albicans KMM 455
Test: Antimicrobial activity, inhibition of microbial growth (OD620)
Assay type: cell-based
Details: Candida albicans, KMM455; compounds tested at 100 µM; read-out: Inhibition of Microbial Growth, C. albicans
Procedure: (§1) The yeast-like fungi of Candida albicans KMM 455 and bacterial strains Staphylococcus aureus ATCC 21027 and Escherichia coli VKPM (B-7935) (Collection of Marine Microorganisms PIBOC FEB RAS) were cultured on solid-medium Mueller Hinton broth with agar (16.0 g/L) in a Petri dish at 37 °C for 24 h.
(§2) The assays were performed in 96-well microplates in appropriate Mueller Hinton broth. Each well contained 90 µL of bacterial or of a yeast-like fungi suspension (10^9 CFU/mL). Then, 10 µL of a compound diluted at concentrations ranging from 1.5 to 100.0 µM using a 2-fold dilution was added (DMSO concentration < 1%). Culture plates were incubated overnight at 37 °C, and the OD620 was measured using a Multiskan FS spectrophotometer (Thermo Scientific Inc., Beverly, MA, USA). The antibiotic gentamicin and antifungal agent nitrofungin were used as positive controls at 1 mg/mL; 1% DMSO in PBS served as a negative control.

SMILES	inhibition at 100 µM
Cc1cc(O)c(O)c2oc3cc(O)cc(O)c3c(=O)c12 [Compound 7, 1,3,5,6-tetrahydroxy-8-methylxanthone]	15.4 ± 2.1%
COC1=CC(=O)c2c(O)cc(OC)cc2[C@@]1(C)O [Compound 2, sajaroketide B]	< 10%

System: Escherichia coli VKPM (B-7935)
Test: as above
Assay type: cell-based
Details: Escherichia coli, compounds tested at 100 µM; read-out: Inhibition of Microbial Growth, E. coli
Procedure: as §1, §2

SMILES	inhibition at 100 µM
Cc1cc(O)c(O)c2oc3cc(O)cc(O)c3c(=O)c12 [Compound 7, 1,3,5,6-tetrahydroxy-8-methylxanthone]	< 10%
COC1=CC(=O)c2c(O)cc(OC)cc2[C@@]1(C)O [Compound 2, sajaroketide B]	< 10%

Same assay, conditions: compounds tested at 100 µM

SMILES	Inhibition of Microbial Growth, E. coli
COC1=CC(=O)c2c(O)cc(OC)cc2[C@@]1(C)O [Compound 2, sajaroketide B]	inactive

System: Staphylococcus aureus ATCC 21027
Test: as above
Assay type: cell-based
Details: Staphylococcus aureus, ATCC21027, compounds tested at 100 µM; read-out: Inhibition of Microbial Growth, S. aureus
Procedure: as §1, §2

SMILES	inhibition at 100 µM
Cc1cc(O)c(O)c2oc3cc(O)cc(O)c3c(=O)c12 [Compound 7, 1,3,5,6-tetrahydroxy-8-methylxanthone]	< 10%
COC1=CC(=O)c2c(O)cc(OC)cc2[C@@]1(C)O [Compound 2, sajaroketide B]	< 10%

Same assay, conditions: compounds tested at 100 µM

SMILES	Inhibition of Microbial Growth, S. aureus
COC1=CC(=O)c2c(O)cc(OC)cc2[C@@]1(C)O [Compound 2, sajaroketide B]	inactive

System: human hepatocarcinoma HepG2 cells
Test: Cell viability assay (MTT), cytotoxic activity
Assay type: cell-based
Details: 100 µM
Procedure: (§3) The HepG2 and H9c2 cells were cultured in DMEM medium (Biolot, St. Petersburg, Russia) containing 10% fetal bovine serum (Biolot, St. Petersburg, Russia) and 1% penicillin/streptomycin (Biolot, St. Petersburg, Russia) at 37 °C in a humidified atmosphere with 5% (v/v) CO2.
(§4) The HepG2 and H9c2 cells were seeded at concentrations of 5× 10^3 and 3×10^3 cell/well, respectively, and the experiments were started after 24 h. The compounds at concentrations up to 100 µM were added into the wells for 24 h, and the viability of the cells was measured by an MTT (3-(4,5-dimethylthiazol-2-yl)-2,5-diphenyltetrazolium bromide) assay, which was performed according to the manufacturer’s instructions (Sigma-Aldrich, Munich, Germany). All compounds were dissolved with DMSO so that the final concentration of DMSO in the cell culture was not more than 1%. Moreover, DMSO was used as a control. The absorbance of the resulting solution was measured at 570 nm with a microplate reader MultiscanFC (ThermoLabsystems Inc., Beverly, MA, USA). The results are presented as a percent of the control data and calculated IC50.

SMILES	decrease of HepG2 cell viability
Cc1cc(O)c(O)c2oc3cc(O)cc(O)c3c(=O)c12 [Compound 7, 1,3,5,6-tetrahydroxy-8-methylxanthone]	42.6 µM

Same assay, conditions: 24 h, MTT; read-out: HepG2 IC50 (cytotoxic effect)

SMILES	IC50
Cc1cc(O)c(O)c2oc3cc(O)cc(O)c3c(=O)c12 [Compound 7, 1,3,5,6-tetrahydroxy-8-methylxanthone]	> 100 µM

System: normal rat cardiomyocyte H9c2 cells
Test: Cell viability assay (MTT), cytotoxic activity
Assay type: cell-based
Details: 100 µM
Procedure: as §3, §4

SMILES	decrease of H9c2 cell viability
COC1=CC(=O)c2c(O)cc(OC)cc2[C@@]1(C)O [Compound 2, sajaroketide B]	21.0%

Same assay, conditions: 24 h, MTT; read-out: H9c2 IC50 (cytotoxic effect)

SMILES	IC50
Cc1cc(O)c(O)c2oc3cc(O)cc(O)c3c(=O)c12 [Compound 7, 1,3,5,6-tetrahydroxy-8-methylxanthone]	> 100 µM

System: not listed separately
Test: Cell viability assay (MTT), cytotoxic activity
Assay type: cell-based, human
Details: human, HepG2 cells (human hepatocarcinoma), 24 h, MTT; read-out: HepG2 IC50 (cytotoxic effect)
Procedure: as §3, §4

SMILES	IC50 at 24 h
Cc1cc(O)c(O)c2oc3cc(O)cc(O)c3c(=O)c12 [Compound 7, 1,3,5,6-tetrahydroxy-8-methylxanthone]	~100 µM
COC1=CC(=O)c2c(O)cc(OC)cc2[C@@]1(C)O [Compound 2, sajaroketide B]	> 100 µM

Same assay, conditions: human, HepG2 hepatocarcinoma cells; 10 µM, 24 h, MTT, percent of control

SMILES	viability at 24 h, 10 µM
Cc1cc(O)c(O)c2oc3cc(O)cc(O)c3c(=O)c12 [Compound 7, 1,3,5,6-tetrahydroxy-8-methylxanthone]	77.1 ± 1.4%
COC1=CC(=O)c2c(O)cc(OC)cc2[C@@]1(C)O [Compound 2, sajaroketide B]	87.3 ± 4.1%

Same assay, conditions: human, HepG2 hepatocarcinoma cells; 100 µM, 24 h, MTT, percent of control

SMILES	viability at 24 h, 100 µM
Cc1cc(O)c(O)c2oc3cc(O)cc(O)c3c(=O)c12 [Compound 7, 1,3,5,6-tetrahydroxy-8-methylxanthone]	57.4 ± 4.2%
COC1=CC(=O)c2c(O)cc(OC)cc2[C@@]1(C)O [Compound 2, sajaroketide B]	76.9 ± 2.1%

Same assay, conditions: rat, H9c2 cardiomyocyte cells; 10 µM, 24 h, MTT, percent of control

SMILES	viability at 24 h, 10 µM
Cc1cc(O)c(O)c2oc3cc(O)cc(O)c3c(=O)c12 [Compound 7, 1,3,5,6-tetrahydroxy-8-methylxanthone]	98 ± 0.9%
COC1=CC(=O)c2c(O)cc(OC)cc2[C@@]1(C)O [Compound 2, sajaroketide B]	96 ± 1.9%

Same assay, conditions: rat, H9c2 cardiomyocyte cells; 100 µM, 24 h, MTT, percent of control

SMILES	viability at 24 h, 100 µM
Cc1cc(O)c(O)c2oc3cc(O)cc(O)c3c(=O)c12 [Compound 7, 1,3,5,6-tetrahydroxy-8-methylxanthone]	52.9 ± 1.5%
COC1=CC(=O)c2c(O)cc(OC)cc2[C@@]1(C)O [Compound 2, sajaroketide B]	79 ± 3.4%

Same assay, conditions: rat, H9c2 cells (normal rat cardiomyocytes), 24 h, MTT; read-out: H9c2 IC50 (cytotoxic effect)

SMILES	IC50 at 24 h
Cc1cc(O)c(O)c2oc3cc(O)cc(O)c3c(=O)c12 [Compound 7, 1,3,5,6-tetrahydroxy-8-methylxanthone]	~100 µM
COC1=CC(=O)c2c(O)cc(OC)cc2[C@@]1(C)O [Compound 2, sajaroketide B]	> 100 µM
